Measurements from PubChem BioAssay (NCI).
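Values below derive from 48-hour exposures of cells grown in 96-well plates, with endpoints linearly interpolated between the two concentrations bracketing the appropriate inhibition level. At the TGI there is no net growth.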

Tests used:
Assay in all cases: DTP human tumour cell line panel, 48 h
RXF 393 renal = test system: RXF 393 renal
UO-31 renal = test system: UO-31 renal
MALME-3M melanoma = test system: MALME-3M melanoma
M14 melanoma = test system: M14 melanoma
SF-268 CNS = test system: SF-268 CNS
DMS 273 small cell lung = test system: DMS 273 small cell lung
HOP-62 NSCLC = test system: HOP-62 NSCLC
SF-539 CNS = test system: SF-539 CNS
MOLT-4 leukemia = test system: MOLT-4 leukemia
SW-620 colon = test system: SW-620 colon
OVCAR-8 ovarian = test system: OVCAR-8 ovarian
K-562 leukemia = test system: K-562 leukemia
LOX IMVI melanoma = test system: LOX IMVI melanoma
NCI-H226 lung = test system: NCI-H226 lung
COLO 205 colon = test system: COLO 205 colon
SN12C renal = test system: SN12C renal
NCI-H522 lung = test system: NCI-H522 lung
SK-MEL-28 melanoma = test system: SK-MEL-28 melanoma
RPMI-8226 leukemia = test system: RPMI-8226 leukemia
OVCAR-3 ovarian = test system: OVCAR-3 ovarian
M19-MEL melanoma = test system: M19-MEL melanoma
TK-10 renal = test system: TK-10 renal
U251 CNS = test system: U251 CNS
NCI-H460 lung = test system: NCI-H460 lung
EKVX NSCLC = test system: EKVX NSCLC
786-0 renal = test system: 786-0 renal
KM20L2 colon = test system: KM20L2 colon
SF-295 CNS = test system: SF-295 CNS
SNB-75 CNS = test system: SNB-75 CNS
DLD-1 colon = test system: DLD-1 colon
UACC-257 melanoma = test system: UACC-257 melanoma
SNB-19 CNS = test system: SNB-19 CNS
SR leukemia = test system: SR leukemia
UACC-62 melanoma = test system: UACC-62 melanoma
A549 NSCLC = test system: A549 NSCLC
ACHN renal = test system: ACHN renal
HCC-2998 colon = test system: HCC-2998 colon
CCRF-CEM leukemia = test system: CCRF-CEM leukemia
SK-OV-3 ovarian = test system: SK-OV-3 ovarian
SNB-78 CNS = test system: SNB-78 CNS
IGROV1 ovarian = test system: IGROV1 ovarian
KM12 colon = test system: KM12 colon
HCT-15 colon = test system: HCT-15 colon
HCT-116 colon = test system: HCT-116 colon
LXFL 529 NSCLC = test system: LXFL 529 NSCLC
NCI-H23 lung = test system: NCI-H23 lung
HL-60(TB) leukemia = test system: HL-60(TB) leukemia
OVCAR-5 ovarian = test system: OVCAR-5 ovarian
SK-MEL-2 melanoma = test system: SK-MEL-2 melanoma
DU-145 prostate = test system: DU-145 prostate
HOP-92 NSCLC = test system: HOP-92 NSCLC
MDA-MB-231 breast = test system: MDA-MB-231 breast
HT29 colon = test system: HT29 colon
BT-549 breast = test system: BT-549 breast
NCI/ADR-RES ovarian = test system: NCI/ADR-RES ovarian
T-47D breast = test system: T-47D breast
MDA-MB-435 = test system: MDA-MB-435
HS 578T breast = test system: HS 578T breast
OVCAR-4 ovarian = test system: OVCAR-4 ovarian
MDA-N = test system: MDA-N
A498 renal = test system: A498 renal
MCF7 breast = test system: MCF7 breast
CAKI-1 renal = test system: CAKI-1 renal
PC-3 prostate = test system: PC-3 prostate
SK-MEL-5 melanoma = test system: SK-MEL-5 melanoma

Measured: TGI

COc1ccccc1-c1cc(=O)c2ccccc2[nH]1
> 100 µM: RXF 393 renal | UO-31 renal | MALME-3M melanoma | M14 melanoma | SF-268 CNS | DMS 273 small cell lung | HOP-62 NSCLC | SF-539 CNS | MOLT-4 leukemia | SW-620 colon | OVCAR-8 ovarian | K-562 leukemia | LOX IMVI melanoma | NCI-H226 lung | COLO 205 colon | SN12C renal | NCI-H522 lung | SK-MEL-28 melanoma | RPMI-8226 leukemia | OVCAR-3 ovarian | M19-MEL melanoma | TK-10 renal | U251 CNS | NCI-H460 lung | EKVX NSCLC | 786-0 renal | KM20L2 colon | SF-295 CNS | SNB-75 CNS | DLD-1 colon | UACC-257 melanoma | SNB-19 CNS | SR leukemia | UACC-62 melanoma | A549 NSCLC | ACHN renal | HCC-2998 colon | CCRF-CEM leukemia | SK-OV-3 ovarian | SNB-78 CNS | IGROV1 ovarian | KM12 colon | HCT-15 colon | HCT-116 colon | LXFL 529 NSCLC | NCI-H23 lung | HL-60(TB) leukemia

CN(C)c1ccc(/C=C2\N=C(NN)NC2=O)cc1
> 100 µM: RXF 393 renal | UO-31 renal | MALME-3M melanoma | M14 melanoma | OVCAR-5 ovarian | SF-268 CNS | SK-MEL-2 melanoma | HOP-62 NSCLC | DU-145 prostate | HOP-92 NSCLC | MOLT-4 leukemia | SW-620 colon | MDA-MB-231 breast | OVCAR-8 ovarian | K-562 leukemia | LOX IMVI melanoma | NCI-H226 lung | COLO 205 colon | BT-549 breast | SN12C renal | NCI-H522 lung | NCI/ADR-RES ovarian | SK-MEL-28 melanoma | T-47D breast | MDA-MB-435 | HS 578T breast | RPMI-8226 leukemia | OVCAR-3 ovarian | TK-10 renal | U251 CNS | NCI-H460 lung | EKVX NSCLC | OVCAR-4 ovarian | 786-0 renal | MDA-N | SF-295 CNS | SNB-75 CNS | A498 renal | UACC-257 melanoma | SNB-19 CNS | SR leukemia | UACC-62 melanoma | A549 NSCLC | ACHN renal | HCC-2998 colon | CCRF-CEM leukemia | SK-OV-3 ovarian | MCF7 breast | IGROV1 ovarian | KM12 colon | HCT-15 colon | CAKI-1 renal | HCT-116 colon | NCI-H23 lung | PC-3 prostate | HL-60(TB) leukemia
98.9 µM: HT29 colon
96.6 µM: SF-539 CNS

C=C1C(=O)OC2CC1C(O)C/C(C)=C/CC/C(C)=C/C(O)CC2C (stereo not drawn)
10.8 µM: DU-145 prostate | NCI-H460 lung
4.95 µM: HCT-15 colon
8.66 µM: SF-268 CNS
9.16 µM: A498 renal
16.8 µM: U251 CNS
11.5 µM: OVCAR-4 ovarian
6.55 µM: SF-539 CNS
4.83 µM: SN12C renal
18.9 µM: SNB-19 CNS
15.4 µM: SK-MEL-5 melanoma
3.11 µM: MOLT-4 leukemia
24.8 µM: NCI-H226 lung
4.21 µM: HCC-2998 colon
3.75 µM: ACHN renal
2.94 µM: COLO 205 colon
5.81 µM: EKVX NSCLC
5.62 µM: SW-620 colon
26.5 µM: SK-OV-3 ovarian
6.91 µM: TK-10 renal
25.2 µM: HOP-62 NSCLC
9.63 µM: M14 melanoma
0.504 µM: NCI-H522 lung
12.2 µM: SK-MEL-2 melanoma
6.23 µM: RPMI-8226 leukemia
9.53 µM: MDA-N
16.3 µM: SNB-75 CNS
4.48 µM: T-47D breast
1.32 µM: HL-60(TB) leukemia
18.3 µM: KM12 colon
12.4 µM: MDA-MB-231 breast
7.44 µM: MCF7 breast
7.61 µM: MALME-3M melanoma
9.2 µM: OVCAR-3 ovarian
9.3 µM: IGROV1 ovarian
4.61 µM: HT29 colon
26.7 µM: SF-295 CNS
2.96 µM: RXF 393 renal
7.8 µM: NCI-H23 lung
28.1 µM: A549 NSCLC
2.74 µM: LOX IMVI melanoma
> 30.5 µM: K-562 leukemia
24.7 µM: OVCAR-5 ovarian
10.3 µM: UACC-257 melanoma
2.61 µM: SR leukemia
13.1 µM: PC-3 prostate
4.17 µM: HOP-92 NSCLC
9.8 µM: SK-MEL-28 melanoma
4.72 µM: OVCAR-8 ovarian
6.1 µM: UACC-62 melanoma
6.45 µM: BT-549 breast
6.66 µM: UO-31 renal
3.33 µM: HCT-116 colon
8.39 µM: CAKI-1 renal
3.99 µM: 786-0 renal
11 µM: HS 578T breast
4.8 µM: NCI/ADR-RES ovarian
13.4 µM: MDA-MB-435
1.34 µM: CCRF-CEM leukemia

CCOc1cc(NC(C)=O)ccc1C(=O)NN1C(=O)C(Oc2ccccc2)C1c1ccccc1 (stereo not drawn)
23.7 µM: SR leukemia
> 100 µM: RXF 393 renal | MALME-3M melanoma | OVCAR-5 ovarian | SF-268 CNS | SK-MEL-2 melanoma | HOP-62 NSCLC | DU-145 prostate | HOP-92 NSCLC | SF-539 CNS | SW-620 colon | MDA-MB-231 breast | OVCAR-8 ovarian | K-562 leukemia | LOX IMVI melanoma | NCI-H226 lung | HT29 colon | COLO 205 colon | BT-549 breast | SN12C renal | NCI-H522 lung | NCI/ADR-RES ovarian | SK-MEL-28 melanoma | T-47D breast | MDA-MB-435 | HS 578T breast | RPMI-8226 leukemia | OVCAR-3 ovarian | TK-10 renal | NCI-H460 lung | EKVX NSCLC | OVCAR-4 ovarian | 786-0 renal | MDA-N | SF-295 CNS | SNB-75 CNS | A498 renal | UACC-257 melanoma | UACC-62 melanoma | ACHN renal | HCC-2998 colon | CCRF-CEM leukemia | SK-OV-3 ovarian | MCF7 breast | IGROV1 ovarian | KM12 colon | HCT-15 colon | CAKI-1 renal | HCT-116 colon | SK-MEL-5 melanoma | NCI-H23 lung | PC-3 prostate | HL-60(TB) leukemia
20.4 µM: MOLT-4 leukemia
